Measured values from US20160097044A1, “Antimicrobial Enzyme Fusions Reduce Resistance and Kill Intracellular Staphylococcus aureus” (The United States of America, as Represented by the …, priority 2014, published 2016).

How the values were obtained:
[1] = system: intracellular S. aureus Newbould 305 in bovine mammary epithelial cell line (MAC-T); assay: Intracellular S. aureus eradication assay in MAC-T cells; assay type: cell-based; conditions: 25 μg in 1 ml DMEM, 2.5 h
Source text: (§1) FIGS. 5a-5e depict peptidoglycan hydrolase-protein transduction domain (PGH-PTD) eradication of intracellular S. aureus in cultured cells. Cultured cells were infected, treated with gentamicin to kill extracellular S. aureus, and then treated with the peptidoglycan hydrolases indicated. All results are standardized to the gentamicin (GENT) only control. Nomenclature of the peptidoglycan hydrolase constructs is as in FIG. 1. Asterisks indicate statistical significance detected with single factor ANOVA (α=0.05) with paired t-test posthoc analyses α=0.05 adjusted with Sidák correction for multiple comparisons (for all cases p<0.01). […] Error bars represent SEM. […] Yellow staining in the combined panel represents intracellular co-localization (in a single plane as determined by z-stack analysis) of both S. aureus and K-L-PTD1 (blue arrow). […]
(§2) Three similar intracellular S. aureus eradication assays from three different labs were optimized for (A) a cultured bovine mammary epithelial cell line (MAC-T, Nexia Biotechnologies, Quebec, Canada; Almeida, supra), (B) primary C57BL/6 mouse-derived osteoblasts (mOBs) (McCall et al. 2008. J. Bone Miner. Res. 23: 30-40) or (C) human brain microvascular endothelial cells (hBMEC; Stins, supra). […] The cell lysate was subjected to serial dilution plating, and the resultant CFUs were counted and normalized to the gentamicin control for each assay. […]

[2] = system: intracellular S. aureus strain ISP479C in human brain microvascular endothelial cells (hBMEC); assay: Intracellular S. aureus eradication assay in hBMEC; assay type: cell-based; conditions: 5 μg/ml, 1 h
Source text: as §1, §2

S. aureus = assay: Murine model of staphylococcal osteomyelitis (femur); assay type: in vivo, C57BL/6J mice; conditions: 5 mg/kg i.m. at site of infection, twice in 24 h, N=6
Method: Neonatal mouse whole calvaria were treated for 4 hours with chimeric peptidoglycan hydrolases or buffer alone, 24 hours post inoculation with GFP-expressing S. aureus. Calvaria were embedded in freeze media, sectioned, and subjected to fluorescence imaging. The image shown is a representative figure for triplicate sections of three separate calvaria. FIG. 8b depicts fluorescence intensity from these sections measured in ImageJ and defined as arbitrary fluorescence standardized to the untreated control. Error bars represent SEM of four replicate experiments. FIG. 8c depicts ex-vivo intracellular S. aureus eradication. Infected calvaria were homogenized and CFU were counted post treatment. Error bars represent SEM. FIG. 8d depicts a murine model of staphylococcal osteomyelitis. C57BL/6J mice were anesthetized and their femurs were surgically exposed. […] The femurs were removed, homogenized, and plated to quantify the bacterial load. […] Asterisks represent statistical significance as determined by one-way ANOVA followed by Tukey's posthoc test.
We utilized a previously described (Marriott, supra) murine model of staphylococcal osteomyelitis that reproduces the clinical and gross pathological phases of inflammatory bone diseases, such as human post-traumatic osteomyelitis. […] Asterisks represent statistical significance as determined by one-way ANOVA followed by Tukey's posthoc test.

[3] = system: intracellular S. aureus strain UAMS-1 in murine calvaria; assay: Ex vivo neonatal mouse calvaria intracellular eradication; assay type: cell-based
Method: Neonatal mouse whole calvaria were treated for 4 hours with chimeric peptidoglycan hydrolases or buffer alone, 24 hours post inoculation with GFP-expressing S. aureus. Calvaria were embedded in freeze media, sectioned, and subjected to fluorescence imaging. The image shown is a representative figure for triplicate sections of three separate calvaria. FIG. 8b depicts fluorescence intensity from these sections measured in ImageJ and defined as arbitrary fluorescence standardized to the untreated control. Error bars represent SEM of four replicate experiments. FIG. 8c depicts ex-vivo intracellular S. aureus eradication. Infected calvaria were homogenized and CFU were counted post treatment. Error bars represent SEM. FIG. 8d depicts a murine model of staphylococcal osteomyelitis. C57BL/6J mice were anesthetized and their femurs were surgically exposed. A trough was drilled through the bone cortex and the damaged bone sites were inoculated with 1×10^3 CFU S. aureus in agarose beads. After 24 hours, mice were treated (i.m. to site of infection) twice in a 24 h period with PBS or 5 mg/kg of triple fusion K-L or K-L-PTD1. The femurs were removed, homogenized, and plated to quantify the bacterial load. Bars indicate the average CFU recovered (N=6). […] Asterisks represent statistical significance as determined by one-way ANOVA followed by Tukey's posthoc test.
To examine the intracellular uptake and eradication in murine osteoblast-containing tissue samples, both ex vivo calvaria (skull cap), and in vivo femur injury models were tested. Calvaria were isolated from neonatal mice and infected with UAMS-1 strain of S. aureus (1×10^6 bacteria/calvaria) for 2 h at 37° C. in osteoblast growth medium in the absence of antibiotics. Following 3× washes with PBS, calvaria were exposed to 50 μg/ml of gentamicin for 15 min to kill extracellular bacteria and further cultured in gentamicin containing osteoblast growth media. After 24 h later, calvaria were treated with peptidoglycan hydrolases (5 μg/ml) or gentamicin only control for 2 h. Lysis buffer containing 0.05% trypsin and 0.25% Triton X-100 was used to homogenize the calvaria, the homogenates were quantitatively plated on LB agar plates, and the CFU were enumerated after 24 h. The data represents triplicate determinants of two separate experiments.
Calvaria were isolated, and infected as described above using GFP-tagged UAMS-1 strain of S. aureus. Two hours post-infection, calvaria were washed with PBS followed by a 15 minutes treatment with 50 μg/ml gentamicin to kill extracellular bacteria. 24 hours post-infection, calvaria were treated with 5 μg/ml peptidoglycan hydrolases or gentamicin only control for two hours and embedded in Tissue-Tek O.C.T compound (Sakura, Torrance, Calif.). […]

S. aureus Newbould 305 [4] = assay: Turbidity reduction assay; assay type: cell-based; conditions: 1 μM enzyme, cells at OD600nm 1.0, FIG. 6a
Method: (§3) FIG. 6a depicts the specific activity of peptidoglycan hydrolase fusion constructs in vitro in a turbidity reduction assay with S. aureus Newbould 305 resuspended in lysis buffer to an OD600nm of 1.0 and treated with 1 μM final concentrations of each peptidoglycan hydrolase. The maximum specific activity for three experiments are represented as an average with SEM error bars. FIG. 6b depicts the bacterial burden in mice with mastitis treated with recombinant peptidoglycan hydrolases. Colony Forming Units (CFUs) from infected murine mammary glands following a single treatment with 50 μl of 25 μM peptidoglycan hydrolase (1.25 nmol). Each data point represents the average of duplicate bacterial platings. The horizontal bars represent the average CFU/mg for each group. FIG. 6c illustrates the TNFα response in mice with mastitis that were treated with peptidoglycan hydrolases. Data represents a minimum of 7 measurements in duplicate. Log TNFα was used for statistical analysis. Single asterisks indicate a significant difference from buffer control (p<0.05); double asterisks indicate a significant difference from the parental enzyme (p<0.05).
FIG. 7 depicts a turbidity reduction assay of select peptidoglycan hydrolases against S. aureus Newbould 305. Bacterial cells were resuspended in lysis buffer to an OD600nm of 1.0 and lysed with 1 μM final concentrations of each peptidoglycan hydrolase. The maximum rate of ΔOD of three experiments are represented as an average with error bars representing SEM. Double asterisks indicate significant difference from parental. Mean comparisons were performed with one way ANOVA (P=3.3×10^−5) with t test post hoc analysis with Sidák adjusted alpha (p<0.01).

S. aureus Newbould 305 [5] = assay: Murine model of mastitis, bacterial load; assay type: in vivo, C57BL6/SJL mice; conditions: for bacterial load / clearance of mammary glands (in words): single 1.25 nmoles intramammary infusion 30 minutes post infection, 18 h
Method: as §3
To evaluate the efficacy of purified, individually administered peptidoglycan hydrolases in a murine model of bovine mastitis, female C57BL6/SJL mice were challenged by the intramammary route with 100 CFU S. aureus Newbould 305 in 50 μl buffer. A single 1.25 nmoles intramammary infusion of each desired peptidoglycan hydrolase (50 μl of a 25 μM solution) or 50 μl PBS was given 30 minutes post infection [with up to six glands treated per animal, each gland receiving a unique treatment] as described earlier (Schmelcher et al. 2012. Appl. Environ. Microbiol. 78:2297-2305; Kerr et al. 2001. Nat. Biotechnol. 19:66-70). Dams were euthanized 18 h post infusion, the mammary glands were aseptically dissected, and portions of the gland were used for determination of bacterial load and TNFα concentrations, as described previously (Schmelcher et al., supra).
Statistical analysis: The variables were analyzed as two-factor mixed models with Treatment as the factor and Mouse as random Blocks. This model […] within mouse correlations. Log(TNFα) was used. The variance grouping technique was used for log CFU and log TNFα to correct for variance heterogeneity. Means comparisons were done with Sidak adjusted p-values so that the experiment-wise error was 0.05. Log(TNFα) is back-transformed to the original units for graphing.

TNFα = assay: Murine model of mastitis, TNFα response; assay type: in vivo, C57BL6/SJL mice; conditions: mice with mastitis
Method: as §3, with “(p<0.05). […]” for “(p<0.05).”
Statistical analysis: The variables were analyzed as two-factor mixed models with Treatment as the factor and Mouse as random Blocks. […]

Row | Substance | intracellular S. aureus CFUs relative to gentamicin only control [1] | intracellular S. aureus CFUs relative to gentamicin only control [2] | bacterial load in femur compared to no treatment (S. aureus) | live bacteria (CFU) recovered from calvaria ([3]; 5 μg/ml for 2 h, homogenized calvaria) | elimination of GFP-labeled intracellular S. aureus (fluorescence) ([3]; 5 μg/ml, 24 hours post-infection, sectioned calvaria) | turbidity reduction (in vitro lytic) activity (S. aureus Newbould 305 [4]) | greater CFU reduction than triple fusion K-L in the mastitis model (S. aureus Newbould 305 [5]; in vivo, compared with triple fusion K-L) | bacterial load / clearance of mammary glands (in words) (S. aureus Newbould 305 [5]) | TNFα response (in words) (TNFα)
1 | 1-Sigma: commercial lysostaphin (Sigma-Aldrich, St. Louis, Mo.) | Neither commercial lysostaphin (1-Sigma; Sigma-Aldrich, St. Louis, Mo.) nor the C-terminal His6-tagged lysostaphin (construct 1) were able to decrease the intracellular CFUs | Neither commercial lysostaphin (1-Sigma; Sigma-Aldrich, St. Louis, Mo.) nor the C-terminal His6-tagged lysostaphin (construct 1) were able to decrease the intracellular CFUs |  |  |  |  |  |  | 
2 | K-L-PTD1: triple fusion K-L with C-terminal PTD 1 (Antp 43-58); SEQ ID NO:53, protein SEQ ID NO:54 |  |  | significantly reduced bacterial load as compared to no treatment | able to reduce the number of live bacteria recovered from sectioned calvaria | able to eliminate GFP-labeled intracellular S. aureus strain UAMS-1 from murine calvaria | reduced the in vitro activity | ~3 orders of magnitude | clearance of the mammary gland to a level equivalent to that of lysostaphin alone or L-PTD1 | 
3 | L-PTD1: lysostaphin-His6 with C-terminal PTD 1 (Antp 43-58); SEQ ID NO:9 |  |  |  |  |  | reduced the in vitro activity |  | further decreased the mean bacterial load | further decreased the mean bacterial load and TNFα concentration
